Reference: patent US8926966B1 (Regents of the University of California, priority 1990, dated 2015)

Tested on: IDDM associated autoantibodies in sera
Test: ELISA of sera on plate-bound human GAD65 peptides
Type: binding
Conditions: for controls whose sera recognized the peptide: 13 control sera; for number of IDDM (at risk, pre-IDDM, at onset) patients positive (X) for the peptide (unlabelled sum line): IDDM sera of Table 11; for patients whose sera recognized the peptide: patients previously shown to be 64K positive
Method: Patient sera and most control sera were those used in a previous study (Kaufman, et al., J. Clin. Investigation, supra) All samples were coded and tested in a blind manner. Peptides were synthesized using an automatic instrument (Applied Biosystems, Foster City, Calif.) and standard conditions. Peptides were dissolved in 60 mM sodium bicarbonate buffer (pH 9.6) at 20 ug/ml and 100 ul of each was added to duplicated wells of a 96 well Nunc-Immuno Plate. Peptides were allowed to bind at 4° C. overnight. The plates were then washed three times with PBS+0.1% Tween 20 (wash buffer), after which the plates were pre-absorbed with 3% BSA in sodium bicarbonate buffer for 0.5 hours at 37° C., or at room temperature overnight. The plates were then washed 5 times with the above wash buffer. 100 ul of serum at a 1/300 dilution in PBS+0.1% Tween 20 and 1% BSA was added to each well and antibodies were allowed to bind for 1 hour at 37° C. The plates were washed 5 times with wash buffer. 100 ul of a 1/600 dilution of HRP-goat anti-human IgG (BRL, Gaithersberg, Md.) was added to each well and allowed to bind for 1 hour at 37° C. The plates were then washed 7 times and 100 ul of substrate buffer was added to each well for 30 minutes at room temperature. The color development was measured at 410 nm using an ELISA plate reader (ICN, Biomedicals, Costa Mesa, Calif.). Positive sera were defined as: OD410 of the sample/negative control ≧3.0.

[1] = IDDM At Onset serum 048, 1/300 dilution
[2] = IDDM At Onset serum 291, 1/300 dilution
[3] = IDDM At Onset serum 705, 1/300 dilution
[4] = IDDM At Onset serum S.H., 1/300 dilution
[5] = IDDM At Risk serum 052, 1/300 dilution
[6] = IDDM At Risk serum L.I., 1/300 dilution
[7] = Pre-IDDM serum 723, 1/300 dilution
[8] = control serum 5620, 1/300 dilution
[9] = IDDM At Risk serum 356, 1/300 dilution
[10] = Pre-IDDM serum J.A., 1/300 dilution
[11] = Pre-IDDM serum J.B. (2), 1/300 dilution
[12] = Pre-IDDM serum P.T. (1), 1/300 dilution
[13] = Pre-IDDM serum P.T. (2), 1/300 dilution
[14] = Pre-IDDM serum R.S. (2), 1/300 dilution
[15] = control serum S.M., 1/300 dilution
[16] = control serum 4380, 1/300 dilution

Sequence: AALGIGTDSVILIKCDERGK [Peptide 20]
- controls whose sera recognized the peptide: none
- immunoreactivity of serum with GAD65 peptide [1]: X (X = positive for immunoreactivity as defined by 00/background^3.0)
- immunoreactivity of serum with GAD65 peptide [2]: X (X = positive for immunoreactivity as defined by 00/background^3.0)
- immunoreactivity of serum with GAD65 peptide [3]: X (X = positive for immunoreactivity as defined by 00/background^3.0)
- immunoreactivity of serum with GAD65 peptide [4]: X (X = positive for immunoreactivity as defined by 00/background^3.0)
- immunoreactivity of serum with GAD65 peptide [5]: X (X = positive for immunoreactivity as defined by 00/background^3.0)
- immunoreactivity of serum with GAD65 peptide [6]: b (b = borderline response (00/background ?2.5-2.9).)
- number of IDDM (at risk, pre-IDDM, at onset) patients positive (X) for the peptide (unlabelled sum line): 7
- immunoreactivity of serum with GAD65 peptide [7]: X (X = positive for immunoreactivity as defined by 00/background^3.0)
- patients whose sera recognized the peptide: 6/8

Sequence: AFTSEHSHFSLKKGAAALGI [Peptide 19]
- immunoreactivity of serum with GAD65 peptide [5]: X (X = positive for immunoreactivity as defined by 00/background^3.0)
- number of IDDM (at risk, pre-IDDM, at onset) patients positive (X) for the peptide (unlabelled sum line): 1

Sequence: ATHQDIDFLIEEIERLGQDL [Peptide 38]
- immunoreactivity of serum with GAD65 peptide [1]: X (X = positive for immunoreactivity as defined by 00/background^3.0)
- immunoreactivity of serum with GAD65 peptide [4]: b (b = borderline response (00/background ?2.5-2.9).)
- immunoreactivity of serum with GAD65 peptide [5]: b (b = borderline response (00/background ?2.5-2.9).)
- number of IDDM (at risk, pre-IDDM, at onset) patients positive (X) for the peptide (unlabelled sum line): 1

Sequence: CGRHVDVFKLWLMWRAKGTTG [Peptide 30]
- immunoreactivity of serum with GAD65 peptide [8]: b (b = borderline response (00/background ?2.5-2.9).)

Sequence: DERGKMIPSDLERRILEAKQ [Peptide 21]
- controls whose sera recognized the peptide: none
- immunoreactivity of serum with GAD65 peptide [1]: X (X = positive for immunoreactivity as defined by 00/background^3.0)
- immunoreactivity of serum with GAD65 peptide [2]: X (X = positive for immunoreactivity as defined by 00/background^3.0)
- immunoreactivity of serum with GAD65 peptide [3]: X (X = positive for immunoreactivity as defined by 00/background^3.0)
- immunoreactivity of serum with GAD65 peptide [4]: X (X = positive for immunoreactivity as defined by 00/background^3.0)
- immunoreactivity of serum with GAD65 peptide [9]: X (X = positive for immunoreactivity as defined by 00/background^3.0)
- number of IDDM (at risk, pre-IDDM, at onset) patients positive (X) for the peptide (unlabelled sum line): 7
- immunoreactivity of serum with GAD65 peptide [7]: X (X = positive for immunoreactivity as defined by 00/background^3.0)
- immunoreactivity of serum with GAD65 peptide [10]: X (X = positive for immunoreactivity as defined by 00/background^3.0)
- immunoreactivity of serum with GAD65 peptide [11]: b (b = borderline response (00/background ?2.5-2.9).)
- immunoreactivity of serum with GAD65 peptide [12]: X (X = positive for immunoreactivity as defined by 00/background^3.0)
- immunoreactivity of serum with GAD65 peptide [13]: X (X = positive for immunoreactivity as defined by 00/background^3.0)
- immunoreactivity of serum with GAD65 peptide [14]: b (b = borderline response (00/background ?2.5-2.9).)
- immunoreactivity of serum with GAD65 peptide [15]: b (b = borderline response (00/background ?2.5-2.9).)
- patients whose sera recognized the peptide: 6/8

Sequence: DICKKYKIWMHVDAAWGGGLLMS [Peptide 24]
- immunoreactivity by both control and patient sera: often positive
- immunoreactivity of serum with GAD65 peptide [1]: X (X = positive for immunoreactivity as defined by 00/background^3.0)
- immunoreactivity of serum with GAD65 peptide [2]: X (X = positive for immunoreactivity as defined by 00/background^3.0)
- immunoreactivity of serum with GAD65 peptide [3]: X (X = positive for immunoreactivity as defined by 00/background^3.0)
- immunoreactivity of serum with GAD65 peptide [4]: X (X = positive for immunoreactivity as defined by 00/background^3.0)
- immunoreactivity of serum with GAD65 peptide [5]: X (X = positive for immunoreactivity as defined by 00/background^3.0)
- immunoreactivity of serum with GAD65 peptide [9]: X (X = positive for immunoreactivity as defined by 00/background^3.0)
- immunoreactivity of serum with GAD65 peptide (IDDM At Risk serum 825, 1/300 dilution): X (X = positive for immunoreactivity as defined by 00/background^3.0)
- immunoreactivity of serum with GAD65 peptide [6]: X (X = positive for immunoreactivity as defined by 00/background^3.0)
- immunoreactivity of serum with GAD65 peptide [7]: X (X = positive for immunoreactivity as defined by 00/background^3.0)
- immunoreactivity of serum with GAD65 peptide (Pre-IDDM serum B.Y. (1), 1/300 dilution): X (X = positive for immunoreactivity as defined by 00/background^3.0)
- immunoreactivity of serum with GAD65 peptide (Pre-IDDM serum B.Y. (2), 1/300 dilution): X (X = positive for immunoreactivity as defined by 00/background^3.0)
- immunoreactivity of serum with GAD65 peptide [10]: X (X = positive for immunoreactivity as defined by 00/background^3.0)
- immunoreactivity of serum with GAD65 peptide (Pre-IDDM serum J.B. (1), 1/300 dilution): X (X = positive for immunoreactivity as defined by 00/background^3.0)
- immunoreactivity of serum with GAD65 peptide [11]: X (X = positive for immunoreactivity as defined by 00/background^3.0)
- immunoreactivity of serum with GAD65 peptide [12]: X (X = positive for immunoreactivity as defined by 00/background^3.0)
- immunoreactivity of serum with GAD65 peptide [13]: X (X = positive for immunoreactivity as defined by 00/background^3.0)
- immunoreactivity of serum with GAD65 peptide (Pre-IDDM serum R.S. (1), 1/300 dilution): X (X = positive for immunoreactivity as defined by 00/background^3.0)
- immunoreactivity of serum with GAD65 peptide [14]: X (X = positive for immunoreactivity as defined by 00/background^3.0)
- immunoreactivity of serum with GAD65 peptide (control serum 1688, 1/300 dilution): X (X = positive for immunoreactivity as defined by 00/background^3.0)
- immunoreactivity of serum with GAD65 peptide [16]: X (X = positive for immunoreactivity as defined by 00/background^3.0)
- immunoreactivity of serum with GAD65 peptide [8]: X (X = positive for immunoreactivity as defined by 00/background^3.0)
- immunoreactivity of serum with GAD65 peptide (control serum 5748, 1/300 dilution): X (X = positive for immunoreactivity as defined by 00/background^3.0)
- immunoreactivity of serum with GAD65 peptide (control serum A.P., 1/300 dilution): X (X = positive for immunoreactivity as defined by 00/background^3.0)
- immunoreactivity of serum with GAD65 peptide (control serum FA2, 1/300 dilution): X (X = positive for immunoreactivity as defined by 00/background^3.0)
- immunoreactivity of serum with GAD65 peptide (control serum FA8, 1/300 dilution): X (X = positive for immunoreactivity as defined by 00/background^3.0)
- immunoreactivity of serum with GAD65 peptide (control serum FA9, 1/300 dilution): X (X = positive for immunoreactivity as defined by 00/background^3.0)
- immunoreactivity of serum with GAD65 peptide (control serum FA11, 1/300 dilution): X (X = positive for immunoreactivity as defined by 00/background^3.0)
- immunoreactivity of serum with GAD65 peptide (control serum FA12, 1/300 dilution): X (X = positive for immunoreactivity as defined by 00/background^3.0)
- immunoreactivity of serum with GAD65 peptide (control serum H.B., 1/300 dilution): X (X = positive for immunoreactivity as defined by 00/background^3.0)
- immunoreactivity of serum with GAD65 peptide (control serum P.T., 1/300 dilution): X (X = positive for immunoreactivity as defined by 00/background^3.0)
- immunoreactivity of serum with GAD65 peptide [15]: X (X = positive for immunoreactivity as defined by 00/background^3.0)

Sequence: DMVGLAADWLTSTANTNMFT [Peptide 13]
- immunoreactivity of serum with GAD65 peptide [5]: b (b = borderline response (00/background ?2.5-2.9).)

Sequence: ERANSVTWNPHKMMGVPLQC [Peptide 26]
- immunoreactivity of serum with GAD65 peptide [2]: X (X = positive for immunoreactivity as defined by 00/background^3.0)
- number of IDDM (at risk, pre-IDDM, at onset) patients positive (X) for the peptide (unlabelled sum line): 1
- immunoreactivity of serum with GAD65 peptide [8]: b (b = borderline response (00/background ?2.5-2.9).)

Sequence: EYGTTTMVSYQPLGDKVNFFR [Peptide 36]
- immunoreactivity of serum with GAD65 peptide [3]: X (X = positive for immunoreactivity as defined by 00/background^3.0)
- number of IDDM (at risk, pre-IDDM, at onset) patients positive (X) for the peptide (unlabelled sum line): 1

Sequence: EYLYNIIKNREGYEMVFDGK [Peptide 32]
- immunoreactivity of serum with GAD65 peptide [1]: X (X = positive for immunoreactivity as defined by 00/background^3.0)
- immunoreactivity of serum with GAD65 peptide [2]: b (b = borderline response (00/background ?2.5-2.9).)
- immunoreactivity of serum with GAD65 peptide [6]: b (b = borderline response (00/background ?2.5-2.9).)
- number of IDDM (at risk, pre-IDDM, at onset) patients positive (X) for the peptide (unlabelled sum line): 1
- immunoreactivity of serum with GAD65 peptide [13]: b (b = borderline response (00/background ?2.5-2.9).)
- immunoreactivity of serum with GAD65 peptide [16]: b (b = borderline response (00/background ?2.5-2.9).)

Sequence: EYVTLKKMREIIGWPGGSGD [Peptide 15]
- immunoreactivity of serum with GAD65 peptide [5]: b (b = borderline response (00/background ?2.5-2.9).)
